These results are taken from US11427588B2, “Compositions and methods for treating neurodegenerative diseases and cardiomyopathy” (THE REGENTS OF THE UNIVERSITY OF CALIFORNIA, priority 2013, dated 2022).

The subject of series [1] is C57 (PINK1 wildtype) derived hippocampal neurons. In words: Mitochondrial motility assay in axons. It is filed as cell-based, mouse. From the text:
(§1) Mitochondrial motility assay: Primary hippocampal neuronal cultures were co-transfected with mitochondrial targeted GFP (mitoGFP) and mCherry-tagged synaptophysin (mCherrySynaptophysin) to allow for the live identification of mitochondria in axons.
(§2) To test if kinetin decreases motility we examined the mobility of axonal mitochondria in hippocampal neurons. Primary hippocampal neuronal cultures were co-transfected with mitoGFP and mCherry-tagged Synaptophysin (mCherrySynaptophysin) to allow for the live identification of mitochondria in axons. […] To test the PINK1 dependency of this process, we treated control mouse C57 (PINK1 wildtype) and PINK1 knockout derived hippocampal neurons with kinetin or 9MK and imaged their mitochondria.

For series [2], the system named is PINK1 knockout derived hippocampal neurons. As to the kind of experiment: Mitochondrial motility assay in axons. It is filed as cell-based, mouse.
From the text: as §1, §2

Series [3] relates to SH-SY5Y. It is filed as in vitro ADME. Conditions: not told. From the text: We included negative control analogs of Kinetin which prevent metabolism.
Series [4] relates to Parkin and Bcl-xL. As to the kind of experiment: Phosphorylation level of Parkin and Bcl-xL in neuronal cell lines. It is filed as cell-based. From the text: (§3) Kinetin mediated PINK1 activity amplification was characterized using a variety of cell lines and primary cells. The HL-1 cell line, an established cardiomyocyte cell line that retains characteristic properties of differentiated cardiac tissue (Claycomb et al., 1998) as well as freshly isolated cardiomyocytes from PINK1wt or PINK1−/− mice. Infected HL-1 cells with a lentivirus expressing shRNA targeting PINK1, were developed to generate a PINK1 knockdown control. To analyze the amplification of PINK1 kinase activity we analyzed the phosphorylation level of Bcl-xL, Mfn2, and Parkin following treatment of PINK1wt and PINK1 knockdown or −/− cell lines with DMSO or 25 μM adenine, kinetin or 9-methyl kinetin (9MK negative control) and fCCCP for three to twenty-four hours following published protocols (Arena et al., 2013; Chen and Dorn, 2013; Kondapalli et al., 2012). […] Accordingly, PINK1wt expressing cells see an increase in PINK1 dependent phosphorylation, but not in those cells where PINK1 has been depleted.

In series [5] the test system is PINK1wt HL-1 cells or cardiomyocytes derived from PINK1wt mice. As to the kind of experiment: Apoptosis of cardiomyocytes after mitochondrial toxins (caspase 3/7, TUNEL, Annexin V). It is filed as cell-based. Conditions: 25 μM, versus control compounds or PINK1 knockdown or −/− cells.
From the text: as §3
The amount of early apoptosis was measured using caspase 3/7 cleavage activity and later stage apoptosis by measuring the number of Terminal deoxynucleotidyl transferase dUTP nick end labeling (TUNEL) positive cells and Annexin V binding by FACS analysis following treatment with mitochondrial toxins. […]

Series [6] has as its system PINK1wt mice. As to the kind of experiment: Heart health and performance in mice treated from birth. It is filed as in vivo. Here is the method:
(§4) PINK1 expression is protective in several mouse models of heart failure. PINK1wt expression will block pathological hypertrophy, increase heart fractional shortening, and prevent ischemia induced death of heart tissue. To assay the effect of kinetin PINK1 wt or PINK1−/− mice were treated with vehicle, adenine or kinetin from birth following published protocols for administration of kinetin (Hims et al., 2007; Shetty et al., 2011). The mice were sacrificed and whole hearts analyzed, and isolated cardiomyocytes from mice at appropriate time periods (e.g. 2 and 6 months). O2 consumption, mitochondrial integrity (mtDNA abundance, mitochondrial capacity and JC-1 fluorescence) caspase 3/7 cleavage activity and TUNEL staining were measured to assess the health of these tissues. According to published results (Billia et al., 2011; Chen and Dorn, 2013), PINK1 activity is essential for normal 02 consumption and maintenance of mitochondrial integrity. Decreased 02 consumption and mitochondrial integrity in PINK1−/− mice was compared to PINK1wt mice. […] Additionally, caspase 3/7 cleavage activity and TUNEL staining of the left ventricle were increased in PINK1−/− mice derived cardiomyocytes compared to PINK1wt.
(§5) In addition to these analyses we analyzed the performance of the heart in whole animals. We utilized the same procedure as above and treated either PINK1wt or PINK1−/− mice with vehicle, adenine or kinetin from birth following published protocols for administration of kinetin (Hims et al., 2007; Shetty et al., 2011). […] These characteristics of pathological hypertrophy indicate heart failure in the PINK1−/− mice will not increase as dramatically in PINK1wt mice (Billia et al., 2011). […] These experiments indicate that amplification of PINK1 activity by treatment with kinetin can block age-induced loss in heart function.

The test system of series [7] is PINK1−/− mice. Described as above. It is filed as in vivo. Here is the method: as §4, §5
Series [8] relates to PINK1wt mice. In words: Heart stress model (trans-aortic banding, angiotensin II). It is filed as in vivo. As to conditions: two weeks dosing, TAB or Angiotensin II; for pathological hypertrophy: 14 days. From the text: Stress on the heart also induces pathological hypertrophy and increased apoptosis, and serves as a good model for heart disease. We utilized trans-aortic banding (TAB) and treatment with angiotensin II to increase pressure in the heart and a model for heart attack by induced myocardial infarction. We treated mice as above with kinetin as well as adenine and vehicle controls for two weeks. We then increased pressure in the heart by performing surgery to partially occlude the aorta (TAB) or sham operation. Additionally we directly injected of a bolus of Angiotensin II or saline into the heart (Billia et al., 2011) to increase blood pressure. […] As the depletion of PINK1 leads to more pathological hypertrophy and increased apoptosis, by amplifying PINK1 activity these characteristics of heart failure will be further reduced.

For series [9], the system named is PINK1wt mice. As to the kind of experiment: Induced myocardial infarction model. It is filed as in vivo. Conditions: two weeks dosing. Here is the method: Utilizing mice dosed with kinetin, adenine or vehicle for two weeks, we induced myocardial infarction by ligating the left anterior descending artery at the level of the left atrial appendage (Wang et al., 2006) or sham surgery. Following infarct for 24 or 72 hours, we sacrificed the mice and analyzed the heart by TUNEL staining as cardiomyocytes are susceptible to cell death following infarct. […] These experiments replicate our results in neurons in which kinetin treatment will block apoptosis in response to a number of cellular stressors.

Where two headings read alike, the source gives them in different places.

In the case of `c1coc(CNc2ncnc3[nH]cnc23)c1` [kinetin], the results for the mitochondrial motility result in [1], in [2] and in series [2] (listed as Kinetin) were “decrease in motility”, “no change in motility” and “no effect on mitochondrial motility”, respectively. In series [3], the “membrane impermeable metabolite after incubation” value was “presence of a membrane impermeable metabolite”. Besides, the “phosphorylation level of Parkin and Bcl-xL” value in series [4] is given as “significant increase”. Further, the apoptosis levels result in series [5] is on record as “significantly lower levels”. Further, the “age induced pathological hypertrophy” value in series [6] (HBW ratio, cross sectional area, extracellular matrix) is “reduces this age induced pathological hypertrophy”; in series [7], “no effect”. Also, the fractional shortening result in series [6] (six month old, echocardiography) is “still higher fractional shortening”. Also, the “O2 consumption and mitochondrial integrity” value in series [6] (treated from birth) is listed as “Improved values”. In addition, the “TUNEL staining of the left ventricle” value in series [6] (treated from birth) was “further reduced TUNEL staining”. Moreover, the “total number of TUNEL positive cells, left ventricle” value in series [8] is “reduced the total number of TUNEL positive cells”. Besides, the pathological hypertrophy entry in [8] is “reduces the pathological hypertrophy”. The “TUNEL positive cells in the peri-infarct area” value in series [9] (24 or 72 hours after infarct) was “significant decrease in TUNEL positive cells”. Also, the “scar size and level of collagen deposition” value in [9] (post-infarct) was “significant decrease in the scar size and the level of collagen deposition”.
As to `Nc1ncnc2nc[nH]c12` [adenine, reference compound], the “age induced pathological hypertrophy” value in series [7] was “no effect”. The pathological hypertrophy entry in series [8] is “not”.
